According to PMC12426922, “Fingerprinting the Intestinal Transport of Low-Molecular-Mass Advanced Glycation End-Products (AGEs) Using a Caco‑2 Transwell Model” (Journal of Agricultural and Food Chemistry, 2025):
“And” between values parts separate entries of the source, which are not always exact repeats. Equal entries are not always repeated. Where two headings read alike, the source gives them in different places. Marks after values point to notes of the source that are not given here.

Columns and labels:
Caco-2 cell monolayer = assay: Accumulation of AGEs in the Caco-2 cell monolayer after transport experiment; assay type: in vitro ADME, Human; conditions: 2 h; for percentage of the amount added at the apical side at t = 0: accumulation / percentage of the amount added at the apical side at t = 0: accumulation (intracellular): mixture, each AGE 100 μmol/L
Experimental: After the transport experiment, the cell monolayer on the inset membrane was washed three times with HBSS and three times with PBS. […] The samples were subsequently centrifuged at 16 000g for 20 min at 4 °C, and the supernatant was collected for further analysis by LC-MS.
The analytical column was maintained at 40 °C throughout the quantification process. A multistep binary gradient system of water containing 0.1% (v/v) formic acid (solvent A) and acetonitrile containing 0.1% (v/v) formic acid (solvent B) was used. In the whole gradient program, the total proportion of solvents A and B is always equal to 100%. […] The initial flow rate was set to 0.30 mL/min. Subsequently, it was reduced to 0.25 mL/min at 0.3 min, which was kept until 10 min. Afterward, there was a gradual decrease, reaching 0.15 mL/min at 11 min, and this rate was maintained until 12 min. […] Between 1 and 11 min of gradient running, the line was set to MS, and for the other time periods, the line was set to waste. The retention time and mass spectrometry parameters of individual AGEs are listed in Table S1 and the chromatograms of the samples are shown in Figure S1.

Caco-2 cell layer = assay: Transport of AGE mixture across Caco-2 cell layer (transwell, apical to basolateral); assay type: in vitro ADME, Human; conditions: for percentage of the amount added at the apical side at t = 0: apical side / percentage of the amount added at the apical side at t = 0: basolateral side / percentage of the amount added at the apical side at t = 0: apical side (nontransported) / percentage of the amount added at the apical side at t = 0: basolateral side (transported): mixture, each AGE 100 μmol/L, 2 h; for percentage of the amount added at the apical side at t = 0: apical side (nontransported) / percentage of the amount added at the apical side at t = 0: basolateral side (transported): standard treatment; for effect of 4 °C on transport compared to 37 °C: 4 °C versus 37 °C
Experimental: (§1) Human colon carcinoma cells (Caco-2 cells) were obtained from the American Type Culture Collection (ATCC, Rockville, MD, USA). Caco-2 cells were cultured in complete culture medium, composed of DMEM GlutaMAX with 10% FBS (v/v), 1% P/S (v/v), and 1% NEAA (v/v) at 37 °C in a 5% (v/v) CO2 incubator. In this study, Caco-2 cells within passages 10–15 were utilized.
(§2) Caco-2 cells were cultured until reaching 50%–60% confluence (undifferentiated Caco-2 cells), followed by trypsinization. Then, cells were seeded at 3 × 10^4 cells per insert in 100 μL of complete culture medium into the transwell inserts of a 24-well transwell plate, and 600 μL of complete culture medium was added to the basolateral compartments. In both the apical and basolateral compartments, the medium was renewed every other day. After 2 weeks, the transepithelial electrical resistance (TEER) value was measured using a Millicell ERS-2 Electrical Resistance System (Burlington, MA, USA) every other day. Only wells with a TEER value of >400 Ω/cm^2 were used for transport experiments. Moreover, the TEER value was measured before and after the transport experiment to ascertain that the Caco-2 cell layer remained intact during the whole transport experiment.
(§3) Transport experiments were performed after 20 days of differentiation of the Caco-2 cells. The culture medium was replaced with HBSS (containing 1% (v/v) HEPES) 30 min prior to testing in both the apical and basolateral compartments. After the 30 min preincubation, 100 μL of HBSS containing a mixture of the 10 different AGEs including CML, CEL, GALA, argpyrimidine, MG-H1, GOLD, GOLA, MOLD, pentosidine, and pyrraline, each at 100 μmol/L, was added to the apical compartment after removing the preincubation medium, while the basolateral medium was replaced by 600 μL of HBSS. […] At 120 min, a 10 μL sample from the apical side was taken for calculating apical side retention (nontransported percentage).
(§4) The apparent permeability coefficient (Papp) value was calculated according to the methodology described by Yee.
(§5) AGEs were quantified by LC-MS using a Shimadzu Nexera XR LC-40D XR UPLC system (Kyoto, Japan) equipped with a UPLC Amide column (100 mm × 2.1 mm, 1.7 μm) without derivatization coupled with a Shimadzu LCMS-8045 triple quadrupole mass spectrometer (Kyoto, Japan). The analytical column was maintained at 40 °C throughout the quantification process. A multistep binary gradient system of water containing 0.1% (v/v) formic acid (solvent A) and acetonitrile containing 0.1% (v/v) formic acid (solvent B) was used. In the whole gradient program, the total proportion of solvents A and B is always equal to 100%. The gradient program was designed as follows: 75% solvent B to 12.5% solvent B from 0 to 10 min, followed by 12.5% solvent B from 10 to 11 min. […] The initial flow rate was set to 0.30 mL/min. Subsequently, it was reduced to 0.25 mL/min at 0.3 min, which was kept until 10 min. Afterward, there was a gradual decrease, reaching 0.15 mL/min at 11 min, and this rate was maintained until 12 min. […] Between 1 and 11 min of gradient running, the line was set to MS, and for the other time periods, the line was set to waste. The retention time and mass spectrometry parameters of individual AGEs are listed in Table S1 and the chromatograms of the samples are shown in Figure S1.

PepT1 = assay: as above; assay type: in vitro ADME, Human; conditions: human, mixture, each AGE 100 μmol/L; for recovery at 2 h, 100 μmol/L: Caco-2, with Gly-Sar 10 mmol/L (apical compartment), Gly-Sar 10 mmol/L, read-out: percentage of the amount added at the apical side at t = 0: recovery; for Papp at 120 min, 100 μmol/L: Caco-2, with Gly-Sar 10 mmol/L (apical), 10 mmol/L Gly-Sar apical (PepT1 inhibition), data from 120 min
Experimental: as §1, §2, §3, §4, §5

[1] = as above; assay type: in vitro ADME, Human; conditions: human; for recovery at 2 h, 100 μmol/L: read-out: percentage of the amount added at the apical side at t = 0: recovery; for Papp at 120 min, 100 μmol/L: data from 120 min
Experimental: as §1, §2, §3, §4, §5

[2] = system: differentiated Caco-2 cells; assay: WST-1 cytotoxicity assay, viability of differentiated Caco-2 cells after 2 h exposure; assay type: cell-based, Human; conditions: for concentration that did not significantly affect cell viability: for the mixture: concentration of each AGE
Experimental: as §1
The WST-1 assay was used to quantify the viability of differentiated Caco-2 cells upon exposure to the individual AGEs and their equimolar mixture. To this end, Caco-2 cells were seeded in 96-well plates at 3 × 10^4 cells/well (100 μL) and incubated at 37 °C under 5% (v/v) CO2 for 20 days. The complete culture medium was refreshed on each alternate day. After full differentiation, the culture medium was removed, and the cells were washed with HBSS (containing 1% (v/v) HEPES) twice on the testing day. The same volume (100 μL) of HBSS containing a series of concentrations of the different individual test compounds or of a mixture containing all 10 AGEs was added from a 20-times-concentrated stock solution in HBSS. The test concentrations were designed based on the estimated daily intake of total AGEs (0.55–0.66 mg/(kg·day)) and high-exposure scenarios (1.4–1.8 mg/(kg day)). […] After exposure for 2 h, the absorbance at 440 and 620 nm was measured in a plate spectrophotometer (Molecular Devices, San Jose, CA, USA, Spectra Max M2). After measurement, the cell viability was calculated as cell viability (%)=(Atested 440 nm−Atested 620 nm)/(Acontrol 440 nm−Acontrol 620 nm)×100

[3] = Caco-2, 4 °C, mixture, each AGE 100 μmol/L
[4] = Caco-2, cytochalasin D pretreatment, mixture, each AGE 100 μmol/L
[5] = Caco-2, standard treatment (37 °C), equimolar mixture of 10 AGEs, each 100 μmol/L apical
[6] = Caco-2, standard treatment, mixture, each AGE 100 μmol/L
[7] = Caco-2, cytochalasin D 1 μg/mL, 30 min apical preincubation, mixture, each AGE 100 μmol/L

| SMILES | percentage of the amount added at the apical side at t = 0: accumulation (Caco-2 cell monolayer; 4 °C) | percentage of the amount added at the apical side at t = 0: accumulation (Caco-2 cell monolayer; Gly-Sar 10 mmol/L) | percentage of the amount added at the apical side at t = 0: accumulation (Caco-2 cell monolayer; cytochalasin D pretreatment) | percentage of the amount added at the apical side at t = 0: accumulation (intracellular) (Caco-2 cell monolayer; standard treatment) | percentage of the amount added at the apical side at t = 0: apical side (Caco-2 cell layer; 4 °C) | percentage of the amount added at the apical side at t = 0: basolateral side (Caco-2 cell layer; 4 °C) | percentage of the amount added at the apical side at t = 0: basolateral side (Caco-2 cell layer; Gly-Sar 10 mmol/L) | percentage of the amount added at the apical side at t = 0: apical side (Caco-2 cell layer; cytochalasin D pretreatment) | percentage of the amount added at the apical side at t = 0: basolateral side (Caco-2 cell layer; cytochalasin D pretreatment) | percentage of the amount added at the apical side at t = 0: apical side (nontransported) (Caco-2 cell layer) | percentage of the amount added at the apical side at t = 0: basolateral side (transported) (Caco-2 cell layer) | recovery at 2 h, 100 μmol/L (PepT1) | Papp at 120 min, 100 μmol/L (PepT1) | recovery at 2 h, 100 μmol/L [1, 3] | Papp at 120 min, 100 μmol/L [1, 3] | recovery at 2 h, 100 μmol/L [1, 4] | Papp at 120 min, 100 μmol/L [1, 5] | recovery at 2 h, 100 μmol/L [1, 6] | Papp at 120 min, 100 μmol/L [1, 7] | concentration that did not significantly affect cell viability [2] | other results |
| --- | --- | --- | --- | --- | --- | --- | --- | --- | --- | --- | --- | --- | --- | --- | --- | --- | --- | --- | --- | --- | --- |
| CC(NCCCC[C@H](N)C(=O)O)C(=O)O (some centres unmarked) [CEL, N-ε-(carboxyethyl)-lysine] | 0.0 ± 0.0 ^b % | 1.3 ± 0.2 ^a % | 1.2 ± 0.2 ^a % | 1.1 ± 0.2 ^a % | 88.8 ± 9.1 ^a % | 0.3 ± 0.1 ^a % | 0.4 ± 0.1 ^a % | 93.1 ± 4.7 ^a % | 1.2 ± 0.6 ^b % | 95.0 ± 7.00 ^a % | 0.4 ± 0.2 ^a % | 89.5 ± 4.8% | 1.49 nm/s | 89.1 ± 9.1% | 1.05 nm/s | 95.5 ± 5.1% | 1.64 nm/s | 96.5 ± 7.2% | 5.07 nm/s | ≤ 1500 µM | intracellular accumulation relative to CML (Caco-2 cell monolayer; standard treatment): about half that observed of CML |
| N[C@@H](CCCCNC(=O)CO)C(=O)O [GALA, glycolic acid–lysine–amide] | 0.0 ± 0.0 ^b % | 0.2 ± 0.1 ^a % | 0.2 ± 0.1 ^a % | 0.2 ± 0.1 ^a % | 89.1 ± 4.5 ^a % | 0.2 ± 0.1 ^c % | 0.8 ± 0.2 ^b % | 87.4 ± 4.3 ^a % | 2.1 ± 0.8 ^a % | 85.0 ± 7.1 ^a % | 1.1% and 1.06% and 1.1 ± 0.3 ^b % | 85.4 ± 3.6% | 3.21 nm/s | 89.3 ± 4.5% | 0.95 nm/s | 89.7 ± 4.6% | 4.48 nm/s | 86.2 ± 7.1% | 8.7 nm/s | ≤ 1500 µM | effect of 4 °C on transport compared to 37 °C (Caco-2 cell layer): significantly reduced; reduction of the Papp value in the presence of Gly-Sar (Caco-2 cell layer; Gly-Sar 10 mmol/L versus standard): 28%; percentage of the amount added at the apical side at t = 0: apical side (Caco-2 cell layer; Gly-Sar 10 mmol/L): 84.4 ± 3.6 ^a % |
| N[C@@H](CCCCn1cc[n+](CCCC[C@H](N)C(=O)O)c1)C(=O)O [GOLD, glyoxal-derived lysine dimer] | 0.0 ± 0.0 ^c % | 0.1 ± 0.0 ^a % | 0.0 ± 0.0 ^ab % | – | 89.6 ± 13.2 ^b % | 0.1 ± 0.1 ^b % | 0.2 ± 0.1 ^b % | 101.2 ± 9.4 ^a % | 0.8 ± 0.3 ^a % | 94.6 ± 8.1 ^ab % | 0.3 ± 0.2 ^b % | 94.1 ± 8% | 1 nm/s | 89.8 ± 13.2% | 0.69 nm/s | 102 ± 9.5% | 1.34 nm/s | 95 ± 8.2% | 3.2 nm/s | – | effect of 4 °C on transport compared to 37 °C (Caco-2 cell layer): significantly reduced; percentage of the amount added at the apical side at t = 0: apical side (Caco-2 cell layer; Gly-Sar 10 mmol/L): 93.7 ± 7.9 ^ab %; effect on cell viability [2]: did not affect cell viability up to the highest concentration tested |
| CC1NC(NCCC[C@H](N)C(=O)O)=NC1=O (some centres unmarked) [MG-H1, methylglyoxal–hydroimidazolone] | 0.0 ± 0.0 ^b % | 0.3 ± 0.1 ^b % | 0.3 ± 0.1 ^b % | 0.3 ± 0.1 ^a % | 89.7 ± 5.5 ^a % | 0.3 ± 0.1 ^b % | 0.4 ± 0.2 ^b % | 93.0 ± 4.5 ^a % | 1.2 ± 0.6 ^a % | 93.4 ± 3.6 ^a % | 0.4 ± 0.2 ^b % | 90.8 ± 5.9% | 1.68 nm/s | 89.7 ± 5.4% | 1.07 nm/s | 94.6 ± 4.2% | 1.82 nm/s | 94.1 ± 3.6% | 5.26 nm/s | ≤ 750 µM | percentage of the amount added at the apical side at t = 0: apical side (Caco-2 cell layer; Gly-Sar 10 mmol/L): 90.1 ± 5.8 ^a % |
